Experimental findings from patent US20090264473A1, “Novel Crystalline Forms of Antidiabetic Compounds” (priority 2006, published 2009) are described below.

Data set [1] in a line: stability of crystal form. The data set is classed as physicochemical.
The nature of data set [2]: water solubility. The data set is classed as physicochemical.
Data set [3] can be described thus: bioavailability in animals. The data set is classed as in vivo.
Data set [4] is described as follows: bioavailability in laboratory studies in dogs. It is filed as in vivo.
A short description of data set [5]: hygroscopicity (weight gain in humid environment). It is filed as physicochemical.
Data set [6] is described as follows: bioavailability in laboratory studies in rats. The data set is classed as in vivo.
The nature of data set [7]: chemical stability. The data set is classed as physicochemical.

Structures are written as SMILES. Counter-ions that a name gives are not always drawn.

With `CCCc1nc(Oc2ccc(Cl)cc2)ccc1-c1noc2cc(Cl)c(O[C@@H](C)C(=O)O)cc12` [Crystalline Free Acid Anhydrate, (2S)-2-({6-chloro-3-[6-(4-chlorophenoxy)-2-propylpyridin-3-yl]-1,2-benzisoxazol-5-yl}oxy)propanoic acid], the “stability with respect to retaining crystal form” value in data set [1] is “stable with respect to retaining their crystal form”. For the same compound, the water solubility entry in data set [2] (native pH) is on record as “very low water solubility”; in data set [2] (neutral pH), “low water solubility”. For the same compound, the bioavailability result in data set [3], in data set [4] and in data set [6] was “good bioavailability” each time. The “weight gain when placed in humid environment” value in data set [5] (environment with up to 95% RH) is “about 0.2 wt %”.
Turning to `CCCc1nc(Oc2ccc(Cl)cc2)ccc1-c1noc2cc(Cl)c(O[C@@H](C)C(=O)O)cc12` [benzenesulfonate salt], the hygroscopicity result in data set [5] is recorded as “non-hygroscopic”. Besides, in data set [7], the chemical stability entry was “chemically stable”. For the same compound, in data set [7] (8 months at 40° C. and 75% RH), the “chemical stability on storage” value is “remaining unchanged”.
